From US9265253B2, “Use of macrocyclic picolinamides as fungicides” (DOW AGROSCIENCES LLC, priority 2013, dated 2016)
Read-outs that look alike come from different tables or passages of the source.

Tests used:
[1] = test system: Puccinia triticina; Synonym: Puccinia recondite f. Sp. Tritici; assay: Wheat Brown Rust (PUCCRT) disease control; type: in vivo; conditions: for pest or weed control at 100 ppm / pest or weed control at 121.5 g/ha: Puccinia triticina, topical
Summary of the method: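 Brown rust on first-leaf Yuma wheat: spore inoculation before or after spray application (acetone/Triton X-100 solution, or EC with Trycol in track spray), overnight 100% RH at 22 °C, disease developed at 24 °C. Severity scored 0–100% and converted to percent control against untreated.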

[2] = test system: Mycosphaerella graminicola; Anamorph: Septoria tritici; assay: Leaf Blotch of Wheat (SEPTTR) disease control; type: in vivo; conditions: for pest or weed control at 100 ppm / pest or weed control at 121.5 g/ha: Zymoseptoria tritici
Summary of the method: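 Protective or curative format: Septoria tritici inoculation either preceded or followed fungicide application to first-leaf Yuma wheat. Severity scored 0–100%; control expressed versus untreated.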

[3] = 24 h, 1 Day Protectant, rate 100 ppm, read-out: PUCCRT 1 DP disease control
[4] = 24 h, 1 Day Protectant, rate 121.5 g/H, read-out: PUCCRT 1 DP disease control
[5] = 72 h, 3 Day Curative, rate 100 ppm, read-out: PUCCRT 3 DC disease control
[6] = 72 h, 3 Day Curative, rate 121.5 g/H, read-out: PUCCRT 3 DC disease control
[7] = 24 h, 1 Day Protectant, rate 100 ppm, read-out: SEPTTR 1 DP disease control
[8] = 24 h, 1 Day Protectant, rate 121.5 g/H, read-out: SEPTTR 1 DP disease control
[9] = 72 h, 3 Day Curative, rate 100 ppm, read-out: SEPTTR 3 DC disease control
[10] = 72 h, 3 Day Curative, rate 121.5 g/H, read-out: SEPTTR 3 DC disease control

SMILES	pest or weed control at 100 ppm [1, 3] [%]	pest or weed control at 121.5 g/ha [1, 4] [%]	pest or weed control at 100 ppm [1, 5] [%]	pest or weed control at 121.5 g/ha [1, 6] [%]	pest or weed control at 100 ppm [2, 7] [%]	pest or weed control at 121.5 g/ha [2, 8] [%]	pest or weed control at 100 ppm [2, 9] [%]	pest or weed control at 121.5 g/ha [2, 10] [%]	further results
COCCC(=O)Oc1c(OC)ccnc1C(=O)N[C@H]1CCC[C@H](Cc2ccc(OC)cc2)[C@@H](OCC2CC2)[C@H](C)OC1=O [Compound F195, 2-(((3S,7R,8R,9S)-8-(cyclopropylmethoxy)-7-(4-methoxybenzyl)-9-methyl-2-oxooxonan-3-yl)carbamoyl)-4-methoxypyridin-3-yl 3-methoxypropanoate]	–	–	–	–	–	–	–	–	pest or weed control at 100 ppm ([1]; 24 h, Wheat Brown Rust, 1 Day Protectant, rate 100 ppm (high volume application), read-out: Disease control PUCCRT 1 DP): 80 to 100%; pest or weed control at 121.5 g/ha ([1]; 24 h, Wheat Brown Rust, 1 Day Protectant, rate 121.5 g/H (low volume application), read-out: Disease control PUCCRT 1 DP): 80 to 100%; pest or weed control at 100 ppm ([1]; 72 h, Wheat Brown Rust, 3 Day Curative, rate 100 ppm (high volume application), read-out: Disease control PUCCRT 3 DC): 80 to 100%; pest or weed control at 121.5 g/ha ([1]; 72 h, Wheat Brown Rust, 3 Day Curative, rate 121.5 g/H (low volume application), read-out: Disease control PUCCRT 3 DC): 0 to 80%; pest or weed control at 100 ppm ([2]; 24 h, Wheat Leaf Blotch, 1 Day Protectant, rate 100 ppm (high volume application), read-out: Disease control SEPTTR 1 DP): 80 to 100%; pest or weed control at 121.5 g/ha ([2]; 24 h, Wheat Leaf Blotch, 1 Day Protectant, rate 121.5 g/H (low volume application), read-out: Disease control SEPTTR 1 DP): 80 to 100%; pest or weed control at 100 ppm ([2]; 72 h, Wheat Leaf Blotch, 3 Day Curative, rate 100 ppm (high volume application), read-out: Disease control SEPTTR 3 DC): 80 to 100%; pest or weed control at 121.5 g/ha ([2]; 72 h, Wheat Leaf Blotch, 3 Day Curative, rate 121.5 g/H (low volume application), read-out: Disease control SEPTTR 3 DC): 80 to 100%
CC[C@H]1CCC[C@H](NC(=O)c2nccc(OC)c2OCOC(C)=O)C(=O)O[C@@H](C)[C@@H]1Oc1ccccc1 [Compound F136]	80 to 100	80 to 100	80 to 100	80 to 100	80 to 100	80 to 100	80 to 100	80 to 100	–
COc1ccnc(C(=O)N[C@H]2CCC[C@H](CCF)[C@@H](OCC(C)C)[C@H](C)OC2=O)c1O [Compound F43]	80 to 100	–	80 to 100	–	80 to 100	–	80 to 100	–	–
COc1ccnc(C(=O)N[C@H]2CCC[C@H](CC3CCCCC3)[C@@H](OCC3CC3)[C@H](C)OC2=O)c1OCOC(C)=O [Compound F97]	80 to 100	80 to 100	80 to 100	80 to 100	80 to 100	80 to 100	80 to 100	80 to 100	–
COCC[C@H]1CCC[C@H](NC(=O)c2nccc(OC)c2O)C(=O)O[C@@H](C)[C@@H]1OCC(C)C [Compound F47]	80 to 100	–	80 to 100	–	80 to 100	–	80 to 100	–	–
COc1ccnc(C(=O)N[C@H]2CCC[C@H](CC3CCCC3)[C@@H](Oc3ccccc3)[C@H](C)OC2=O)c1O [Compound F27]	80 to 100	–	80 to 100	–	80 to 100	–	80 to 100	–	–
CCCO[C@@H]1[C@@H](CC2CCCC2)CCC[C@H](NC(=O)c2nccc(OC)c2OC(C)=O)C(=O)O[C@H]1C [Compound F74]	80 to 100	80 to 100	80 to 100	0 to 80	80 to 100	80 to 100	80 to 100	80 to 100	–
COc1ccnc(C(=O)N[C@H]2CCC[C@H](CCSC)[C@@H](OCC(C)C)[C@H](C)OC2=O)c1OCOC(C)=O [Compound F131]	80 to 100	80 to 100	80 to 100	80 to 100	80 to 100	0 to 80	80 to 100	80 to 100	–
COc1ccc(C[C@H]2CCC[C@H](NC(=O)c3nccc(OC)c3O)C(=O)O[C@@H](C)[C@@H]2OC(=O)C2CCCC2)cc1 [Compound F28]	80 to 100	–	–	–	80 to 100	–	0 to 80	–	–
COc1ccnc(C(=O)N[C@H]2CCC[C@H](Cc3ccc(F)cc3)[C@@H](Oc3ccccc3)[C@H](C)OC2=O)c1OC(C)=O [Compound F68]	80 to 100	80 to 100	80 to 100	0 to 80	80 to 100	80 to 100	80 to 100	80 to 100	–
CCOCC(=O)Oc1c(OC)ccnc1C(=O)N[C@H]1CCC[C@H](CCF)[C@@H](OCC(C)C)[C@H](C)OC1=O [Compound F184]	80 to 100	–	80 to 100	–	80 to 100	–	80 to 100	–	–
CCO[C@@H]1[C@@H](Cc2ccccc2)CCC[C@H](NC(=O)c2nccc(OC)c2OCOC(C)=O)C(=O)O[C@H]1C [Compound F111]	–	80 to 100	–	80 to 100	–	80 to 100	–	80 to 100	–
COc1ccnc(C(=O)N[C@H]2CCC[C@H](CCC(C)C)[C@@H](OCCCC(F)(F)F)[C@H](C)OC2=O)c1OC(C)=O [Compound F65]	80 to 100	80 to 100	80 to 100	0 to 80	80 to 100	80 to 100	80 to 100	80 to 100	–
CCOCC(=O)OCOc1c(OC)ccnc1C(=O)N[C@H]1CCC[C@H](CC2CCCC2)[C@@H](OCC2CC2)[C@H](C)OC1=O [Compound F178]	80 to 100	80 to 100	80 to 100	0 to 80	80 to 100	80 to 100	80 to 100	80 to 100	–
COc1ccnc(C(=O)N[C@H]2CCC[C@H](CCC(C)C)[C@@H](OCC3CC3)[C@H](C)OC2=O)c1O [Compound F3]	80 to 100	–	80 to 100	–	80 to 100	–	80 to 100	–	–
COc1ccnc(C(=O)N[C@H]2CCC[C@H](CCC(C)C)[C@@H](OCC(C)C)[C@H](C)OC2=O)c1OCOC(C)=O [Compound F90]	80 to 100	80 to 100	80 to 100	80 to 100	80 to 100	80 to 100	80 to 100	80 to 100	–
COc1ccnc(C(=O)N[C@H]2CCC[C@H](Cc3ccc(C)cc3)[C@@H](OCCCC(F)(F)F)[C@H](C)OC2=O)c1O [Compound F55]	–	–	–	–	–	–	–	–	PUCCRT 1 DP disease control ([1]; 1 Day Protectant, rate 100 ppm): A (80-100); SEPTTR 1 DP disease control ([2]; 1 Day Protectant, rate 100 ppm): A (80-100); SEPTTR 3 DC disease control ([2]; 3 Day Curative, rate 100 ppm): B (More than 0-Less than 80)
COc1ccnc(C(=O)N[C@H]2CCC[C@H](Cc3ccco3)[C@@H](OCC(C)C)[C@H](C)OC2=O)c1O [Compound F34]	80 to 100	–	80 to 100	–	80 to 100	–	80 to 100	–	–
COc1ccnc(C(=O)N[C@H]2CCC[C@H](CCC(C)C)[C@@H](OCC(C)C)[C@H](C)OC2=O)c1OCOC(=O)C(C)C [Compound F148]	80 to 100	80 to 100	80 to 100	80 to 100	80 to 100	80 to 100	80 to 100	80 to 100	–
